Measured values: patent US20220323406A1, “METHODS AND COMPOSITIONS FOR DIFFERENTIATING STEM CELLS” (Massachusetts Institute of Technology, priority 2019, published 2022)

What was measured:
[1] = system: ENR+CD organoids (ISC to Paneth cell differentiation); assay: Primary screen: basal (non-stimulated) lysozyme secretion LYZ.NS, 2.5-D 384-well ENR+CD organoid differentiation; assay type: cell-based, mouse; conditions: primary screen; for Z.LYZ.NS: standard z score
Description: (§1) High-throughput screening.

[2] = system: ENR+CD organoids (ISC to Paneth cell differentiation); assay: Primary screen: CCh-stimulated lysozyme secretion LYZ.S, 2.5-D 384-well ENR+CD organoid differentiation; assay type: cell-based, mouse; conditions: primary screen
Description: as §1

[3] = system: ENR+CD organoids; assay: Primary screen: ATP (CellTiter-Glo 3D, CTG) cell number/viability, 2.5-D 384-well ENR+CD organoids; conditions: primary screen; for Z.CTG: standard z score;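 for all read-outs here: compounds given at plating and again on day 3 over a 6-day differentiation from ENR+CV stem-cell-enriched precursors, ATP measured on day 6, plate median as control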

Row | SMILES | Z.LYZ.NS (standard z score) ([1]; dose 0.08 uM) | Z.LYZ.NS (standard z score) ([1]; dose 0.40 uM) | Z.LYZ.NS (standard z score) ([1]; dose 2.00 uM) | Z.LYZ.NS (standard z score) ([1]; dose 10.00 uM) | Z.CTG (standard z score) ([3]; dose 0.08 uM) | Z.CTG (standard z score) ([3]; dose 0.40 uM) | Z.CTG (standard z score) ([3]; dose 2.00 uM) | Z.CTG (standard z score) ([3]; dose 10.00 uM) | Dose.FC.LYZ.NS ([1]; dose 0.08 uM) | Dose.FC.LYZ.NS ([1]; dose 0.40 uM) | Dose.FC.LYZ.NS ([1]; dose 2.00 uM) | Dose.FC.LYZ.NS ([1]; dose 10.00 uM) | Dose.FC.LYZ.S ([2]; dose 0.08 uM) | Dose.FC.LYZ.S ([2]; dose 0.40 uM) | Dose.FC.LYZ.S ([2]; dose 2.00 uM) | Dose.FC.LYZ.S ([2]; dose 10.00 uM) | Dose.FC.CTG ([3]; dose 0.08 uM) | Dose.FC.CTG ([3]; dose 0.40 uM) | Dose.FC.CTG ([3]; dose 2.00 uM) | Dose.FC.CTG ([3]; dose 10.00 uM) | further results
1 | Cc1cc(SCc2sc(-c3ccc(C(F)(F)F)c(F)c3)nc2C)ccc1OCC(=O)O [GW0742] | 0.454 | 0.390 | 0.231 | −1.322 | −1.794 | −1.167 | −0.596 | −1.078 |  |  |  |  |  |  |  |  |  |  |  |  | Dose.FC.LYZ.NS (log2 fold change) ([1]; dose 0.08 uM): 0.052; Dose.FC.LYZ.NS (log2 fold change) ([1]; dose 0.40 uM): 0.045; Dose.FC.LYZ.NS (log2 fold change) ([1]; dose 2.00 uM): 0.026; Dose.FC.LYZ.NS (log2 fold change) ([1]; dose 10.00 uM): −0.152; Dose.FC.LYZ.S (log2 fold change) ([2]; dose 0.08 uM): 0.048; Dose.FC.LYZ.S (log2 fold change) ([2]; dose 0.40 uM): 0.106; Dose.FC.LYZ.S (log2 fold change) ([2]; dose 2.00 uM): 0.014; Dose.FC.LYZ.S (log2 fold change) ([2]; dose 10.00 uM): −0.183; Dose.FC.CTG (log2 fold change) ([3]; dose 0.08 uM): −0.751; Dose.FC.CTG (log2 fold change) ([3]; dose 0.40 uM): −0.489; Dose.FC.CTG (log2 fold change) ([3]; dose 2.00 uM): −0.249; Dose.FC.CTG (log2 fold change) ([3]; dose 10.00 uM): −0.451
2 | COc1ccc(C[C@@H](C)NC[C@H](O)c2ccc(O)c(NC=O)c2)cc1.COc1ccc(C[C@@H](C)NC[C@H](O)c2ccc(O)c(NC=O)c2)cc1.O=C(O)/C=C/C(=O)O [Formoterol Hemifumarate] |  |  |  |  |  |  |  |  | 0.145 log2 fold change | 0.073 log2 fold change | 0.048 log2 fold change | 0.013 log2 fold change | 0.206 log2 fold change | 0.293 log2 fold change | 0.090 log2 fold change | 0.011 log2 fold change | 0.294 log2 fold change | 0.265 log2 fold change | 0.242 log2 fold change | 0.253 log2 fold change | Z.LYZ.NS ([1]; dose 0.08 uM): 1.263; Z.LYZ.NS ([1]; dose 0.40 uM): 0.638; Z.LYZ.NS ([1]; dose 2.00 uM): 0.420; Z.LYZ.NS ([1]; dose 10.00 uM): 0.114; Z.CTG ([3]; dose 0.08 uM): 0.703; Z.CTG ([3]; dose 0.40 uM): 0.633; Z.CTG ([3]; dose 2.00 uM): 0.578; Z.CTG ([3]; dose 10.00 uM): 0.604
3 | NC(=O)Nc1cc(-c2cccc(F)c2)sc1C(=O)N[C@H]1CCCNC1 [AZD7762] | 0.084 | −1.385 | −1.835 | −1.917 | 0.129 | −0.917 | −1.920 | −3.251 | 0.010 log2 fold change | −0.159 log2 fold change | −0.211 log2 fold change | −0.220 log2 fold change | 0.019 log2 fold change | −0.251 log2 fold change | −0.342 log2 fold change | −0.369 log2 fold change | 0.054 log2 fold change | −0.384 log2 fold change | −0.804 log2 fold change | −1.361 log2 fold change | 
4 | CCN(CC)CC(=O)Nc1c(C)cccc1C [Lidocaine] | 0.927 | 0.144 | 0.008 | 0.167 |  |  |  |  |  |  |  |  |  |  |  |  |  |  |  |  | Dose.FC.LYZ.NS (log2 fold change) ([1]; dose 0.08 uM): 0.106; Dose.FC.LYZ.NS (log2 fold change) ([1]; dose 0.40 uM): 0.017; Dose.FC.LYZ.NS (log2 fold change) ([1]; dose 2.00 uM): 0.001; Dose.FC.LYZ.NS (log2 fold change) ([1]; dose 10.00 uM): 0.019; Dose.FC.LYZ.S (log2 fold change) ([2]; dose 0.08 uM): 0.083; Dose.FC.LYZ.S (log2 fold change) ([2]; dose 0.40 uM): 0.026; Dose.FC.LYZ.S (log2 fold change) ([2]; dose 2.00 uM): −0.038; Dose.FC.LYZ.S (log2 fold change) ([2]; dose 10.00 uM): −0.009; Dose.FC.CTG (log2 fold change) ([3]; dose 0.08 uM): −0.079; Dose.FC.CTG (log2 fold change) ([3]; dose 0.40 uM): −0.153; Dose.FC.CTG (log2 fold change) ([3]; dose 2.00 uM): 0.034; Dose.FC.CTG (log2 fold change) ([3]; dose 10.00 uM): −0.256
5 | NC(=O)Nc1sc(-c2ccc(F)cc2)cc1C(N)=O [TPCA-1] | 0.627 | −0.413 | −0.514 | −1.711 | −0.146 | −0.010 | −0.012 | −1.269 | 0.072 log2 fold change | −0.047 log2 fold change | −0.059 log2 fold change | −0.197 log2 fold change | 0.041 log2 fold change | −0.029 log2 fold change | −0.054 log2 fold change | −0.294 log2 fold change | −0.061 log2 fold change | −0.004 log2 fold change | −0.005 log2 fold change | −0.531 log2 fold change | 
